Measured values taken from US6632844B1, “Methods and compositions for preserving glucose level in blood specimens” (Washington University, priority 2000, dated 2003).
Like-named read-outs stand apart in the source and are kept apart here.

Assays:
heparinized whole blood = conditions: for Decrease (glucose loss) / Glucose at 8 hours / Glucose at 0 Hours: agent at 10 mmol/L; for Decrease (glucose loss): 0 to 8 hours, no additions 41%; for Glucose at 8 hours: 8 hours at room temperature; for Glucose at 8 hours / Glucose at 0 Hours: mean(SD); for IC50: read-out: concentration that reduced glycolytic loss by half, 8 hours incubation at room temperature; for ability to preserve specimen glucose (in words): 10 mmol/L, 8 hours
Description: Whole blood specimens collected in tubes containing sodium heparin as anticoagulant were obtained from healthy adult volunteers or from adult diabetic patients visiting an outpatient clinic, after obtaining informed consent. Specimens were employed for experimentation within one hour of collection. In a few experiments, whole blood heparinized specimens arriving at the clinical laboratory for analysis for glucose and other common analytes were mixed, and aliquots removed for experimental purposes. These studies were conducted in accordance with a protocol approved by the Human Studies Committee of Washington University.
Aliquots of heparinized whole blood (0.96 mL) were pipetted into microfuge tubes containing 0.040 mL of saline or anti-glycolytic agent in saline. Anti-glycolytic agents were prepared as 250 mmol/L stock solutions within one hour of use. At various times plasma was prepared from incubations by centrifugation at 8000×G for two minutes; plasma was decanted to 12×75 mm tubes and stored frozen until analysis. All incubations of whole blood were conducted at room temperature (23°) on a rotating table shaker, which kept the cells in dispersed suspension. d,1-glyceraldehyde, methylgloxal, d-glyceraldehyde, glycolaldehyde and dihydroxyacetone were obtained from Sigma Chem Co. (St. Louis, Mo.). 1-glyceraldehyde was obtained from Fisher Scientific (Pittsburgh, Pa.).
Glucose analyses were routinely performed on a Cobas-MIRA analyzer (Roche Diagnostic Systems, Montclair, N.J.), employing reagents based on glucose oxidase, manufactured by Sigma Diagnostics (St. Louis, Mo.). In some experiments, glucose and many other common laboratory analyses were performed on a Vitros 250 Analyzer (Ortho-Clinical Diagnostics, Rochester, N.Y.), a Hitachi 747 Analyzer (Boehringer-Mannheim Corp., Indianapolis, Ind.) and a RxL Analyzer (Dade Behring, Inc. Newark, Del.).
Whole heparinized blood was incubated for 0-8 hours in the presence of 10 mmol/L d,1-GA, and the glycolytic loss of glucose followed over time (FIG. 1).
Whole heparinized blood was incubated for 8 hours in the presence of 0-10 mmol/L d,1-GA (FIG. 2).
Several compounds related biochemically or structurally to d,1-GA were tested for ability to preserve specimen glucose; incubations without inhibitor and with d,1-GA were included for comparison (Table I). All compounds were tested at a final concentration of 10 mmol/L, and incubations were conducted at 0 hours and 8 hours for each compound. […] To test this possibility, an experiment varying the concentration of 1-GA was performed in analogy with the earlier experiment varying the d,1-GA concentration (see above).

[1] = test system: patient whole blood specimens; experiment: Efficacy of d,1-GA in patient specimens: initial glucose vs glucose after 8 hours incubation; type: cell-based, human; conditions: 10 mmol/L d,1-GA
Description: Results are presented by plotting initial glucose concentration against glucose concentrations either in the presence or absence of d,1-GA (FIG. 3).

[2] = test system: erythrocyte potassium homeostasis; experiment: Effect on erythrocyte potassium homeostasis (plasma potassium in whole blood incubations); type: cell-based, human; conditions: 10 mmol/L d,1-GA; room temperature; 4.0±0 mmol/L at 0 hours
Experimental: 1-glyceraldehyde was obtained from Fisher Scientific (Pittsburgh, Pa.).
The time course of potassium concentration changes was followed for 8 hours in whole blood incubations under three conditions; 1) incubation at room temperature (without additions), 2) incubation at room temperature with 10 mmol/L d,1-GA, and 3) incubation at 4° C. (without additions). In room temperature incubations without additive, potassium decreased modestly from 4.0±0 mmol/L at 0 hours to 3.5±0.1 mmol/L at 8 hours. Incubation for 8 hours in the presence of d,1-GA caused an increase of similar magnitude (to 4.5±0 mmol/L). In contrast, incubation at 4° C., which has been advocated as an effective way to prevent glucose loss for short periods (Lin et al., Clin. Chem., 22:2031-3 (1976)), caused an increase to 6.0±0.1 mmol/L.

Compound	residual glucose at 8 hours (heparinized whole blood; 5 mmol/L d,1-GA, start 4.8±0.1 mmol/L, FIG. 2) [mmol/L]	loss of glucose at 8 hours (heparinized whole blood; 10 mmol/L d,1-GA, FIG. 1, without additive 38% lost) [%]	Decrease (glucose loss) (heparinized whole blood) [%]	Glucose at 8 hours (heparinized whole blood)	Glucose at 0 Hours (heparinized whole blood)	IC50 (heparinized whole blood) [µM]	hemolysis (heparinized whole blood; whole blood incubation with additive)	reduction of the extent of glucose loss compared with absence of d,1-GA [1]	plasma potassium at 8 hours [2] [mmol/L]	ability to preserve specimen glucose (in words) (heparinized whole blood)	hemolysis (heparinized whole blood)	elimination of glycolytic loss (in words) (heparinized whole blood; 2.5 mmol/L 1-GA, 8 hour incubation, data not shown)
O=CC(O)CO (stereo not shown) [d,1-GA, d,1-glyceraldehyde]	4.6 ± 0.3	2	0	4.8(0.1) mmol/L	4.7(0.2) mmol/L	~900	did not promote visible hemolysis	more than 7 fold	4.5 ± 0	–	–	–
O=C(O)C(O)CO (stereo not shown) [Glyceric Acid, reference compound]	–	–	42	2.7(0.2) mmol/L	4.7(0.1) mmol/L	–	–	–	–	–	–	–
O=C[C@H](O)CO [d-GA, d-glyceraldehyde]	–	–	17	3.9(0.1) mmol/L	4.7(0.1) mmol/L	–	–	–	–	only partly effective	–	–
CC(=O)C=O [Methylglyoxal, reference compound]	–	–	43	2.6(0.2) mmol/L	4.5(1.0) mmol/L	–	–	–	–	ineffective	–	–
O=C[C@@H](O)CO [1-GA, 1-glyceraldehyde]	–	–	0	4.8(0.1) mmol/L	4.8(0.1) mmol/L	~650	–	–	–	completely prevented	does not cause hemolysis	nearly completely effective
O=CCO [Glycolaldehyde, reference compound]	–	–	52	2.3(0.1) mmol/L	4.8(0.1) mmol/L	–	–	–	–	–	–	–
O=C(CO)[C@@H](O)[C@H](O)[C@@H](O)CO [L-Sorbose, reference compound]	–	–	38	3.1(0) mmol/L	5.0(0.1) mmol/L	–	–	–	–	not effective	–	–
